Assays:
ZR-75-1 cells = assay: Caspase cascade activation (N-(Ac-DEVD)-N'-ethoxycarbonyl-R110 fluorogenic substrate) in ZR-75-1 cells; format: cell-based, Human; conditions: ZR-75-1, 48 h incubation
In short: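 Cells (0.65×10^6/ml) exposed 48 h at 37 °C to compound (0.016-10 μM final), then lysed with 14 μM DEVD-R110 substrate buffer (PIPES pH 7.2, DTT, lysolecithin) for 3 h at room temperature. Net fluorescence (485/530 nm) relative to control; EC50 by sigmoidal dose-response.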

MCF-7 cells = assay: Cell proliferation assay (GI50) in MCF-7 cells; format: cell-based; conditions: Homo sapiens, MCF7; MCF-7, 48 h
Procedure: [Worded in the source for another cell line; this cell line is reported under the same test.] T-47D cells were grown and harvested as in Example 221. An aliquot of 90 μl of cells (2.2×10^4 cells/ml) was added to a well of a 96-well microtiter plate containing 10 μl of a 10% DMSO in RPMI-1640 media solution containing 1 nM to 100 μM of 4-(3-methoxyanilino)-2-(2-pyridinyl)-6-(trifluoromethyl)pyrimidine (0.1 nM to 10 μM final). An aliquot of 90 μl of cells was added to a well of a 96-well microtiter plate containing 10 μl of a 10% DMSO in RPMI-1640 media solution without compound as the control sample for maximal cell proliferation (AMax). The samples were mixed by agitation and then incubated at 37° C. for 48 h in a 5% CO2-95% humidity incubator. After incubation, the samples were removed from the incubator and 20 μl of CellTiter 96 AQueous One Solution Cell Proliferation^TM reagent (Promega) was added. The samples were mixed by agitation and incubated at 37° C. for 2-4 h in a 5% CO2-95% humidity incubator. Using an absorbance plate reader (Model 1420 Wallac Instruments), an initial reading (T=0) was made approximately 1-2 min after addition of the solution, employing absorbance at 490 nm. This determines the possible background absorbance of the test compounds. No absorbance for 4-(3-methoxyanilino)-2-(2-pyridinyl)-6-(trifluoromethyl)pyrimidine was found at 490 nm. After the 2-4 h incubation, the samples were read for absorbance as above (ATest). […]

EC50 (ZR-75-1 cells; Homo sapiens, caspase activation potency): 140 nM
GI50 (MCF-7 cells): 100 nM
Compound: COc1cccc(Nc2cc(C(F)(F)F)nc(-c3ccccn3)n2)c1 [Compound A, 4-(3-methoxyanilino)-2-(2-pyridinyl)-6-(trifluoromethyl)pyrimidine]
ZR Ratio 48 hr (ZR-75-1 cells; caspase activity: ratio of net RFU of test compound to control): 3.6
